Test results as given in patent US5187082A, “Process for producing A83850 antibiotics” (Eli Lilly and Company, priority 1990, dated 1993).
≈ marks a conversion by molar mass, not a printed value. Read-outs that look alike come from different tables or passages of the source.

Key:
Fusobacterium symbiosum [1] = test: microbe, parasite or virus in culture; conditions: 24 h
Peptococcus prevoti = test: Activity against anaerobic bacteria, agar-dilution MIC
Bacteroides corrodens = test: as above; format: cell-based
[2] = tested on: Bacteriodes melaninogenicus; test: as above; format: cell-based
Eubacterium aerofaciens [3] = test: microbe, parasite or virus in culture; conditions: Collinsella aerofaciens, 24 h
[4] = tested on: Streptococcus pneumoniae Park 1; test: microbe, parasite or virus in culture; format: cell-based
Experimental: (§1) The MIC's in Table VII were determined by standard agar-dilution assays.

[5] = tested on: Peptostreptococcus intermedius; test: Activity against anaerobic bacteria, agar-dilution MIC; format: cell-based
[6] = tested on: Culture A83850 (Amycolatopsis albus NRRL 18532); test: Resistance of culture A83850 to antibiotics, sensitivity discs on seeded ISP No. 2 agar plates; format: cell-based; conditions: disc content printed per antibiotic
Experimental: Resistance to antibiotics was measured by padding antibiotic sensitivity discs onto the surface of seeded ISP No. 2 agar plates.

Clostridium difficile = test: Activity against anaerobic bacteria, agar-dilution MIC
[7] = tested on: Peptococcus asaccharolyticus; test: as above
[8] = tested on: Bacteriodes thetaiotaomicron; test: as above
[9] = tested on: Peptostreptococcus anaerobius; test: as above; format: cell-based
Bacteriodes vulgatis = test: as above
Propionibacterium acnes = test: as above; format: cell-based
[10] = tested on: Enterococcus faecalis 2041; format: cell-based
Experimental: as §1

[11] = tested on: Staphylococcus epidermidis 222; format: cell-based
Experimental: as §1

[12] = tested on: Streptococcus pyogenes C203; format: cell-based
Experimental: as §1

[13] = tested on: Staphylococcus aureus X1.1; format: cell-based
Experimental: as §1

[14] = tested on: Staphylococcus aureus V41; format: cell-based
Experimental: as §1

Enterococcus faecium X66 = format: cell-based
Experimental: as §1

[15] = tested on: Staphylococcus aureus X400; format: cell-based
Experimental: as §1

[16] = tested on: Staphylococcus epidermidis 270; format: cell-based
Experimental: as §1

[17] = tested on: Fusobacterium necrophorum; test: microbe, parasite or virus in culture; conditions: 24 h
Clostridium perfringens [18] = test: microbe, parasite or virus in culture; conditions: 24 h
Bacteriodes fragilis = test: Activity against anaerobic bacteria, agar-dilution MIC; format: cell-based
Clostridium septicum [19] = test: microbe, parasite or virus in culture; conditions: 24 h
Streptococcus pneumoniae = test: In vivo activity against experimentally-induced infection in mice; conditions: doses administered subcutaneously to mice 1 and 4 hours postinfection
Experimental: (§2) The A83850 antibiotics have also shown in vivo antimicrobial activity against experimentally-induced infections in laboratory animals. When two doses of test compound were administered to mice experimentally infected with the test organism, the activity observed was measured as an ED50 value [effective dose in mg/kg to protect 50% of the test animals: see Warren Wick, et al., J. Bacteriol. 81, 233-235 (1961)].
(§3) ^a mg/kg × 2; doses administered subcutaneously to mice 1 and 4

Streptococcus pyogenes = test: as above; conditions: doses administered subcutaneously to mice 1 and 4 hours postinfection
Experimental: as §2, §3

Staphylococcus aureus = test: as above; conditions: doses administered subcutaneously to mice 1 and 4 hours postinfection
Experimental: as §2, §3

Clostridium perfringens [20] = conditions: anaerobe, agar dilution, read after 24-hour incubation
Clostridium septicum [21] = conditions: anaerobe, agar dilution, read after 24-hour incubation
Fusobacterium symbiosum [22] = conditions: anaerobe, agar dilution, read after 24-hour incubation
Eubacterium aerofaciens [23] = conditions: anaerobe, agar dilution, read after 24-hour incubation
[24] = tested on: Fusobacterium necrophorum; conditions: anaerobe, agar dilution, read after 24-hour incubation

CN[C@H](CC(C)C)C(=O)N[C@H]1C(=O)N[C@@H](CC(N)=O)C(=O)N[C@H]2C(=O)N[C@H]3C(=O)N[C@H](C(=O)N[C@H](C(=O)O)c4cc(O)cc(O)c4-c4cc3ccc4O)[C@H](O)c3ccc(c(Cl)c3)Oc3cc2cc(c3O[C@@H]2O[C@H](CO)[C@@H](O)[C@H](O)[C@H]2O[C@H]2C[C@](C)(N)[C@H](O)[C@H](C)O2)Oc2ccc(cc2Cl)[C@H]1O [Vancomycin, vancomycin, reference compound]
MIC (Fusobacterium symbiosum [1]): 2 µg/mL (≈ 1.38 µM)
MIC (Peptococcus prevoti; 24 h): 4 µg/mL (≈ 2.76 µM)
MIC (Bacteroides corrodens; Eikenella corrodens, 24 h): 32 µg/mL (≈ 22.1 µM)
MIC ([2]; 24 h): 128 µg/mL (≈ 88.3 µM)
MIC (Eubacterium aerofaciens [3]): 8 µg/mL (≈ 5.52 µM)
MIC ([4]; Streptococcus pneumoniae, PARK1): 0.5 µg/mL (≈ 0.345 µM)
MIC ([5]; Peptostreptococcus, 24 h): 2 µg/mL (≈ 1.38 µM)
Resistance or inhibition of culture A83850 by antibiotic disc [6]: inhibited
MIC (Clostridium difficile; Clostridioides difficile, 24 h): 2 µg/mL (≈ 1.38 µM)
MIC ([7]; Peptoniphilus asaccharolyticus, 24 h): 4 µg/mL (≈ 2.76 µM)
MIC ([8]; 24 h): 64 µg/mL (≈ 44.2 µM)
MIC ([9]; 24 h): 1 µg/mL (≈ 0.69 µM)
MIC (Bacteriodes vulgatis; 24 h): 16 µg/mL (≈ 11 µM)
MIC (Propionibacterium acnes; Cutibacterium acnes, 24 h): 4 µg/mL (≈ 2.76 µM)
MIC ([10]; Enterococcus faecalis, 2041): 4 µg/mL (≈ 2.76 µM)
MIC ([11]; Staphylococcus epidermidis, 222): 1 µg/mL (≈ 0.69 µM)
MIC ([12]; Streptococcus pyogenes, C203): 0.5 µg/mL (≈ 0.345 µM)
MIC ([13]; Staphylococcus aureus, X1.1): 0.5 µg/mL (≈ 0.345 µM)
MIC ([14]; Staphylococcus aureus, V41): 0.5 µg/mL (≈ 0.345 µM)
MIC (Enterococcus faecium X66; Enterococcus faecium, X66): 1 µg/mL (≈ 0.69 µM)
MIC ([15]; Staphylococcus aureus, X400): 1 µg/mL (≈ 0.69 µM)
MIC ([16]; Staphylococcus epidermidis, 270): 1 µg/mL (≈ 0.69 µM)
MIC [17]: 1 µg/mL (≈ 0.69 µM)
MIC (Clostridium perfringens [18]): 2 µg/mL (≈ 1.38 µM)
MIC (Bacteriodes fragilis; 24 h): 16 to 32 µg/mL (≈ 11 to 22.1 µM)
MIC (Clostridium septicum [19]): 2 µg/mL (≈ 1.38 µM)
ED50 Value (Streptococcus pneumoniae): 0.67 mg/kg × 2
ED50 Value (Streptococcus pyogenes): 0.98 mg/kg × 2
ED50 Value (Staphylococcus aureus): 1.43 mg/kg × 2

CC(C)C[C@H](C(=O)N[C@H]1C(=O)N[C@@H](CC(N)=O)C(=O)N[C@H]2C(=O)N[C@H]3C(=O)N[C@H](C(=O)N[C@H](C(=O)O)c4cc(O)cc(O)c4-c4cc3ccc4O)[C@H](O)c3ccc(c(Cl)c3)Oc3cc2cc(c3O[C@@H]2O[C@H](CO)[C@@H](O)[C@H](O)[C@H]2O[C@H]2C[C@](C)(N)C(=O)[C@H](C)O2)Oc2ccc(cc2Cl)[C@H]1O)N(C)C [A83850A]
MIC (Peptococcus prevoti; Peptococcus prevoti, anaerobe, agar dilution, read after 24-hour incubation): 16 µg/mL (≈ 10.9 µM)
MIC (Bacteroides corrodens; Bacteroides corrodens, anaerobe, agar dilution, read after 24-hour incubation): 32 µg/mL (≈ 21.9 µM)
MIC ([2]; Bacteriodes melaninogenicus, anaerobe, agar dilution, read after 24-hour incubation): 16 µg/mL (≈ 10.9 µM)
MIC (Clostridium perfringens [20]): 2 µg/mL (≈ 1.37 µM)
MIC (Clostridium septicum [21]): 2 µg/mL (≈ 1.37 µM)
MIC ([4]; Streptococcus pneumoniae Park 1, agar dilution): 1.0 µg/mL (≈ 0.684 µM)
MIC ([5]; Peptostreptococcus intermedius, anaerobe, agar dilution, read after 24-hour incubation): 2.0 µg/mL (≈ 1.37 µM)
MIC (Fusobacterium symbiosum [22]): 4 µg/mL (≈ 2.74 µM)
MIC (Clostridium difficile; Clostridium difficile, anaerobe, agar dilution, read after 24-hour incubation): 4 µg/mL (≈ 2.74 µM)
MIC ([7]; Peptococcus asaccharolyticus, anaerobe, agar dilution, read after 24-hour incubation): 16 µg/mL (≈ 10.9 µM)
MIC (Eubacterium aerofaciens [23]): 2 µg/mL (≈ 1.37 µM)
MIC ([8]; Bacteriodes thetaiotaomicron, anaerobe, agar dilution, read after 24-hour incubation): 64 µg/mL (≈ 43.8 µM)
MIC ([9]; anaerobe, agar dilution, read after 24-hour incubation): 32 µg/mL (≈ 21.9 µM)
MIC (Bacteriodes vulgatis; Bacteriodes vulgatis, anaerobe, agar dilution, read after 24-hour incubation): 16 µg/mL (≈ 10.9 µM)
MIC (Propionibacterium acnes; Propionibacterium acnes, anaerobe, agar dilution, read after 24-hour incubation): 8.0 µg/mL (≈ 5.47 µM)
MIC ([10]; Enterococcus faecalis 2041, agar dilution): 8.0 µg/mL (≈ 5.47 µM)
MIC ([11]; Staphylococcus epidermidis 222, agar dilution): 2.0 µg/mL (≈ 1.37 µM)
MIC ([12]; Streptococcus pyogenes C203, agar dilution): 1.0 µg/mL (≈ 0.684 µM)
MIC ([13]; Staphylococcus aureus X1.1, agar dilution): 1.0 µg/mL (≈ 0.684 µM)
MIC ([14]; Staphylococcus aureus V41, agar dilution): 2.0 µg/mL (≈ 1.37 µM)
MIC (Enterococcus faecium X66; Enterococcus faecium X66, agar dilution): 2.0 µg/mL (≈ 1.37 µM)
MIC ([15]; Staphylococcus aureus X400, agar dilution): 2.0 µg/mL (≈ 1.37 µM)
MIC ([16]; Staphylococcus epidermidis 270, agar dilution): 4.0 µg/mL (≈ 2.74 µM)
MIC (Bacteriodes fragilis; Bacteriodes fragilis, anaerobe, agar dilution, read after 24-hour incubation): 16.0 to 32.0 µg/mL
MIC [24]: 1.0 µg/mL (≈ 0.684 µM)
ED50 Value (Streptococcus pneumoniae): 2.73 mg/kg × 2
ED50 Value (Streptococcus pyogenes): 3.62 mg/kg × 2
ED50 Value (Staphylococcus aureus): 2.87 mg/kg × 2
